Assay results reported in patent US20230348454A1, “COMPOUNDS AS MODULATORS OF BIS-PHOSPHOGLYCERATE MUTASE FOR THE TREATMENT OF SICKLE CELL DISEASE” (Genzyme Corporation, priority 2020, published 2023).
pEC50, pIC50: −log10 of the molar value. Read-outs that look alike come from different tables or passages of the source.

Key:
hBPGM = target: T1, hBPGM (Homo sapiens, UniProt P07738); assay: BPGM synthase assay; format: biochemical
T1 sequence (P07738 1-259): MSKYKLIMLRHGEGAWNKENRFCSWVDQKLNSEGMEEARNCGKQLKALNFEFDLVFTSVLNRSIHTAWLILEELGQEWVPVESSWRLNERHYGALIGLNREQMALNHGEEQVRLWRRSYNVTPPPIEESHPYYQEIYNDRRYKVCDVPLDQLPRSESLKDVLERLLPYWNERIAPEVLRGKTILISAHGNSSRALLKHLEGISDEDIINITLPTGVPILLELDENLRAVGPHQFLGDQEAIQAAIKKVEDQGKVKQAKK
How it was run: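 The enzyme solution held 5 nM BPGM with 0.4 U/mL coupling GAPDH in Tris pH 7.4, 3.23 mM KH2PO4, 1 mM DTT, and compounds were pre-incubated 30 min at RT. Substrate solution (2 mM NAD, 20 μM 3PG, 800 μM GAP) reacted 60 min before a koningic acid quench. NADH fluorescence (360/460) and diaphorase/resazurin-derived resorufin (544/590) were read.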

[1] = target: T2, human Bisphosphoglycerate mutase (hBPGM) (Homo sapiens, UniProt P07738); assay: BPGM phosphatase assay; format: biochemical
T2 sequence (P07738 1-259): T1 sequence (P07738 1-259)
Procedure: The following materials were used in this assay: Tris buffer (50 mM Tris, 0.01% Tween 20, pH 7.4); cyclohexylammonium salt of 2,3-BPG (stock solution of 500 mM in ultapure distilled water; human Bisphosphoglycerate mutase (hBPGM; stock solution of 110 μM in Standard Buffer); 3-Phosphoglyceric acid (3-PG; stock solution of 100 mM in ultrapure distilled water); 384-Well Polystyrene Plates (Fisherbrand™, Catalog No.: 12-566-625); BIOMOL GREEN REAGENT (Enzo life sciences, BML-AK111-0250); and 1 mM DMSO stock of exemplary compounds.
A 3-PG enzyme mix solution (final enzyme concentration 62.5 nM, 3-PG concentration at 50 µM, 14.5 uL) was added to onto a 384-well clear plate. Solutions of the test compounds were then added to the plate and the DMSO content was normalized across the plate. The plate was incubated at RT for 15 min. Next, the substrate 2,3-BPG (5 μL) was added to all the wells, and the plate was sealed and incubated for 24 hr at RT. After incubation, BIOMOL green dye (40 μL) was added to all the wells, the plate was shaken to mix, and the plate was incubated at RT for 20-30 min. Absorbance measurements were recorded at 620 nm.

[2] = Table 6, read-out: huBPGM: synthase Enzyme IC50
[3] = Table 6, read-out: huBPGM: phosphatase Enzyme EC50
[4] = Table 4, read-out: hBPGM Phosphatase EC50

SMILES	pIC50 (hBPGM; [2])	pEC50 [1, 3]	pEC50 [1, 4]	pIC50 (hBPGM; Table 3, read-out: hBPGM Synthase IC50)
COC(=O)NCc1nc(C)c(-c2csc(-c3ccc(C(=O)NS(C)(=O)=O)cc3)n2)s1 [Example 208]	5.51	4.80		
COc1cnc(OCc2nc(C)c(-c3cccc(-c4cc(F)c5nn[nH]c5c4)n3)s2)nc1 [Example 142]	6.59	7.40		
Cc1nc(COc2ncccn2)sc1-c1cccc(-c2ccc(O)c(C#N)c2)n1 [Example 159]	6.54	5.74		
Cc1nc(COCC(=O)N(C)C)sc1-c1cccc(-c2cc(F)c(O)c(F)c2F)n1 [Example 170]	5.96	6.06		
COC(=O)NCc1nc(C)c(-c2csc(-c3ccc(-c4nnn[nH]4)c(O)c3)n2)s1 [Example 213]	6.80	7.22		
Cc1nc(COC(C)C(=O)N(C)C)sc1-c1csc(-c2cc(F)c(O)c(F)c2F)n1 (stereo not drawn) [Example 98]	5.66	6.42		
Cc1nc(COc2ncccn2)sc1-c1cccc(-c2ccc(-c3noc(=O)[nH]3)cc2)n1 [compound 15]	6.85	6.77	6.77	
COC(=O)NCc1nc(C)c(-c2csc(-c3ccc4[nH]nnc4c3F)n2)s1 [Example 156]	6.70	6.82		
COC(=O)NCc1nc(C)c(-c2csc(-c3ccc(O)c(F)c3)n2)s1 [Example 203]	5.21	5.44		
Cc1nc(CNc2ncccn2)sc1-c1cccc(-c2cc(F)c3nn[nH]c3c2)n1 [Example 155]	7.36	7.40		
Cc1cnc(OCc2nc(C)c(-c3cccc(-c4cc(F)c5nn[nH]c5c4)n3)s2)nc1 [Example 152]	7.40	7.52		
Cc1ccnc(OCc2nc(C)c(-c3cccc(-c4cc(F)c5nn[nH]c5c4F)n3)s2)n1 [Example 130]	7.82	5.00		
Cc1nc(CNc2ncccn2)sc1-c1csc(-c2cc(F)c3[nH]nnc3c2)n1 [Example 175]	7.10	7.52		
Cc1nc(COc2ccccn2)sc1-c1csc(-c2cc(F)c(O)c(F)c2F)c1 [Example 102]	6.21	7.35		
COC(=O)NCc1nc(C)c(-c2csc(-c3cc(F)c(O)c(F)c3)n2)s1 [Example 191]	5.96	5.80		
Cc1ccnc(OCc2nc(C)c(-c3cccc(-c4cc(F)c5nn[nH]c5c4)n3)s2)n1 [Example 153]	7.09	7.22		
Cc1nc(COc2ccccn2)sc1-c1csc(-c2cc(F)c(O)c(F)c2)n1 [Example 192]	6.00	6.31		
Cc1nc(COCC(=O)N2CCCC2)sc1-c1csc(-c2cc(F)c(O)c(F)c2F)n1 [Example 127]	6.37	6.42		
Cc1nc(COc2ncccn2)sc1-c1cccc(-c2cc(F)c(O)c(F)c2F)n1 [Example 172]	6.55	6.62		
Cc1nc(COC(=O)N2CCN(C)CC2)sc1-c1cccc(-c2cc(F)c3nn[nH]c3c2)n1 [Example 147]	6.26	6.31		
Cc1nc(COc2ncccn2)sc1-c1cccc(-c2ccc(C(=O)NS(=O)(=O)c3ccccc3)cc2)n1 [Example 157]	6.77	6.62		
COC(=O)NCc1nc(C)c(-c2csc(-c3cc(F)c4[nH]nnc4c3)n2)s1 [Example 214]	6.74	7.02		
COC(=O)NCc1nc(C)c(-c2csc(-c3ccc(O)c(C#N)c3F)n2)s1 [Example 173]	5.82	< 4.60		
Cc1nc(CNC(=O)c2cccnn2)sc1-c1csc(-c2cc(F)c(O)c(F)c2)c1 [Example 194]	6.09	6.43		

Further compounds by rising pIC50 (hBPGM; [2]), results first:

pIC50 (hBPGM; [2])	pEC50 [1, 3]	pEC50 [1, 4]	pIC50 (hBPGM; Table 3, read-out: hBPGM Synthase IC50)	SMILES
5.19	5.09			COC(=O)NCc1nc(C)c(-c2csc(-c3ccc(C(=O)Nc4nnn[nH]4)cc3)n2)s1 [Example 207]
5.38	5.48			COC(=O)NCc1nc(C)c(-c2csc(-c3ccc(O)c(F)c3F)n2)s1 [Example 190]
5.51	6.40			Cc1nc(CNC(=O)C(C)(C)C)sc1-c1csc(-c2cc(F)c(O)c(F)c2)c1 [Example 197]
5.64	< 4.60			Cc1nc(COCC(=O)N2CCN(CCO)CC2)sc1-c1csc(-c2cc(F)c(O)c(F)c2F)n1 [Example 104]
5.74	5.16			Cc1nc(CNC(=O)N2CC(O)C2)sc1-c1csc(-c2cc(F)c(O)c(F)c2F)n1 [Example 97]
5.80	6.00			CC(=O)NCc1nc(C)c(-c2csc(-c3cc(F)c(O)c(F)c3F)n2)s1 [Example 96]
5.85	5.92			COC(=O)NCc1nc(C)c(-c2csc(-c3ccc(C(=O)NS(C)(=O)=O)c(O)c3)n2)s1 [Example 206]
5.92	6.60			Cc1nc(COc2ncccn2)sc1-c1cccc(-c2cc(F)c(O)c(F)c2F)c1 [Example 148]
6.01	6.51			COC(=O)NCc1nc(C)c(-c2csc(-c3cc(O)c(C#N)cc3F)c2)s1 [Example 189]
6.25	6.48			Cc1nc(COC(=O)N(C)C)sc1-c1cccc(-c2cc(F)c(O)c(F)c2F)n1 [Example 169]
6.29	6.72	6.72	6.29	Cc1nc(COc2ccccn2)sc1-c1csc(-c2cc(F)c(O)c(F)c2F)n1 [compound 11]
6.34	6.28			Cc1nc(COCC(=O)N(C)C)sc1-c1csc(-c2cc(F)c(O)c(F)c2F)n1 [Example 160]
6.47	6.36			COC(=O)NCc1nc(C)c(-c2csc(-c3ccc(-c4nnn[nH]4)cc3)n2)s1 [Example 205]
6.48	7.40			CCc1cnc(OCc2nc(C)c(-c3cccc(-c4cc(F)c5nn[nH]c5c4F)n3)s2)nc1 [Example 144]
6.51	7.24			Cc1nc(COc2ccccn2)sc1-c1csc(-c2cc(F)c3[nH]nnc3c2)n1 [Example 100]
6.52	6.32			COC(=O)NCc1nc(C)c(-c2csc(-c3cc(F)c(O)c(F)c3F)n2)s1 [Example 187]

pIC50 (hBPGM; [2])	pEC50 [1, 3]	pEC50 [1, 4]	pIC50 (hBPGM; Table 3, read-out: hBPGM Synthase IC50)	SMILES
6.52	6.10			Cc1nc(CNC(=O)C(C)(C)C)sc1-c1csc(-c2cc3nn[nH]c3cc2F)n1 [Example 181]
6.60	7.52			Cc1nc(COc2ncccn2)sc1-c1csc(-c2cc(F)c3[nH]nnc3c2)c1 [Example 145]
6.62	6.28			Cc1nc(COc2ncccn2)sc1-c1cccc(-c2ccc(C#N)c(O)c2)n1 [Example 158]
6.62	6.46			Cc1nc(CNC(=O)c2cccnn2)sc1-c1csc(-c2cc(F)c(O)c(F)c2F)n1 [Example 186]
6.66	6.89			Cc1nc(CNc2ncccn2)sc1-c1cccc(-c2cc(F)c(O)c(F)c2F)n1 [Example 168]
6.70	7.15			Cc1cnc(OCc2nc(C)c(-c3cccc(-c4cc(F)c5nn[nH]c5c4)n3)s2)nc1C [Example 136]
6.77	6.59			Cc1nc(COCC(=O)N(C)C)sc1-c1cccc(-c2cc(F)c3nn[nH]c3c2)n1 [Example 163]
6.80	6.62			Cc1nc(COc2ncc(C(=O)O)cn2)sc1-c1cccc(-c2cc(F)c3nn[nH]c3c2F)n1 [Example 135]
6.89	6.51	6.51		Cc1nc(COc2ncccn2)sc1-c1csc(-c2cc(F)c(O)c(F)c2F)n1 [compound 10]
6.89	7.12			Cc1nc(COC(=O)N(C)C)sc1-c1cccc(-c2cc(F)c3nn[nH]c3c2)n1 [Example 167]
6.96	7.31			Cc1nc(COc2ncccn2)sc1-c1csc(-c2cc(F)c(O)c(F)c2F)c1 [Example 154]
7.04	6.96			Cc1nc(CNc2ncccn2)sc1-c1csc(-c2cc(F)c(O)c(F)c2F)n1 [Example 165]
7.27	7.24			Cc1nc(COc2ncccn2)sc1-c1cccc(-c2cc(F)c3[nH]nnc3c2)n1 [Example 141]
7.60	7.60			Cc1nc(CNc2cccnn2)sc1-c1cccc(-c2cc(F)c3nn[nH]c3c2F)n1 [Example 95]
7.68	< 4.60			Cc1nc(CNc2ncccn2)sc1-c1cccc(-c2cc(F)c3nn[nH]c3c2F)n1 [Example 126]
7.77	7.40	7.40		Cc1cnc(OCc2nc(C)c(-c3cccc(-c4cc(F)c5nn[nH]c5c4F)n3)s2)nc1 [compound 8]
